Source: ChEMBL document CHEMBL1150016, “Quinuclidine based NK-1 antagonists 2: determination of the absolute stereochemical requirements” (Bioorg Med Chem Lett, 1993)
pIC50: −log10 of the molar value.

Target: Substance-P receptor (Homo sapiens, UniProt P25103)
Experiment: Tested for binding affinity by measuring displacement of [125I]SP from human NK-1 receptor in CHO Cells

Chain of Substance-P receptor (P25103 whole entry): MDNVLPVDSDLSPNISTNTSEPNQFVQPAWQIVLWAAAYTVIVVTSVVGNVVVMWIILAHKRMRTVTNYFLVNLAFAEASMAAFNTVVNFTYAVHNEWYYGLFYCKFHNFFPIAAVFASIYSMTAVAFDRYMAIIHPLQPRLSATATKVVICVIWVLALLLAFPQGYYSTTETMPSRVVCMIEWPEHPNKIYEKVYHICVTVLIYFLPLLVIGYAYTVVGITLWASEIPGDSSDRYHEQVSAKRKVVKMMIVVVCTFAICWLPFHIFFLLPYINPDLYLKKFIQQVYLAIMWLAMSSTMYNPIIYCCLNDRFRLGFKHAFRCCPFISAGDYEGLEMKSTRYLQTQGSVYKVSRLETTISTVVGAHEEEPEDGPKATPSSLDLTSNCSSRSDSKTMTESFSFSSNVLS

Compound	pIC50
FC(F)(F)c1cc(CO[C@@H]2C3CCN(CC3)[C@H]2C(c2ccccc2)c2ccccc2)cc(C(F)(F)F)c1	6.57
FC(F)(F)c1cc(CO[C@@H]2C3CCN(CC3)[C@@H]2C(c2ccccc2)c2ccccc2)cc(C(F)(F)F)c1	6.24
FC(F)(F)c1cc(CO[C@H]2C3CCN(CC3)[C@@H]2C(c2ccccc2)c2ccccc2)cc(C(F)(F)F)c1	9.15
FC(F)(F)c1cc(CO[C@H]2C3CCN(CC3)[C@H]2C(c2ccccc2)c2ccccc2)cc(C(F)(F)F)c1 [L-709210]	8.89
